“Also recorded” adds a separate entry of the source. Ends that are not written are not given here.
Columns and labels:
L. monocytogenes CBC1 = assay: Deferred antagonism assay; assay type: cell-based, Listeria monocytogenes; parameters: key: + = Enhanced bioactivity relative to control; − = Bioactivity equal to or less than control; NA = no activity evident; conditions: L. mono CBC1; XX and XXX hinge mutant producers
Method: (§1) Deferred antagonism assays were performed by replicating strains on GM17 or GM17 x-gal agar plates and allowing them to grow overnight before overlaying with either GM17/BHI/TS/MH agar (0.75% w/v agar) seeded with the appropriate indicator strain. Zone size was calculated as the diameter of the zone of clearing minus the diameter of bacterial growth (5 mm) For higher throughput screening of N20PXX, XM21VX, XXK22T and XXX banks deferred antagonism assays were performed by replicating strains using a 96 pin replicator (Boekel) or spotting 5 μl of a fresh overnight culture on GM17 agar plates and allowing them to grow overnight. […] Additional sets of indicators were employed to further assess/reassess the bioactivity of a number of strains. […] For well-diffusion assays molten agar was cooled to 48° C. and seeded with the appropriate indicator strain. The inoculated medium was rapidly transferred into sterile Petri plates in 50 ml volumes, allowed to solidify and dried. Wells (4.6 mm in diameter) were then made in the seeded plates. Purified nisin and mutant nisins were resuspended in 0.005% acetic acid, serially diluted, 50 μl volumes were dispensed into the aforementioned wells and the plates incubated at 37° C. overnight. Bioactivity was expressed as arbitrary units/ml (AU/ml) and calculated as the reciprocal of the highest dilution that gave a definite zone multiplied by the conversion factor (i.e. 20 when 50 μl was used) (Ryan et al., 1996).
(§2) As a consequence of the enhanced activities of K22T and K22S, a more in-depth investigation of this region was carried out. Saturation mutagenesis was undertaken to create a bank of nisin A hinge derivatives containing the vast majority of possible amino acid substitutions for each position. Although pPTPL was used successfully for random mutagenesis, its relatively large size of approx 10.5 kb was considered unsuitable for the complete plasmid PCR amplification approach utilized for saturation mutagenesis. A smaller (approx 6 kb) E. coli-L. lactis shuttle vector pCI372 was considered to be potentially more useful. Its suitability with respect to the in trans expression of nisA was confirmed by the ability of pDFO5 to restore the nisin positive phenotype. Saturation mutagenesis was performed on each codon using pDF05 and oligonucleotides (Table 5) that replace the specific codon with a NNK triplet, potentially encoding all 20 standard amino acids. Following complete plasmid amplification and introduction into the intermediate Top10 host, sequence analysis of a pooled bank of pDF05 derivatives confirmed randomization. Introduction of these variants into L. lactis NZ9800 allowed the expression of mutant nisin A peptides for further analysis. […] 46 residue conversions were isolated. All strains, regardless of bioactivity, were assessed with a view to comprehensively assessing the consequences of each individual hinge alteration.

L. monocytogenes CBC2 = assay: Deferred antagonism assay; assay type: cell-based, Listeria monocytogenes; parameters: key: + = Enhanced bioactivity relative to control; − = Bioactivity equal to or less than control; NA = no activity evident; conditions: L. mono CBC2; XX and XXX hinge mutant producers
Method: as §1, §2

L. monocytogenes CBC3 = assay: Deferred antagonism assay; assay type: cell-based, Listeria monocytogenes; parameters: key: + = Enhanced bioactivity relative to control; − = Bioactivity equal to or less than control; NA = no activity evident; conditions: L. mono CBC3; XX and XXX hinge mutant producers
Method: as §1, §2

L. lactis CBC7 = assay: Deferred antagonism assay; assay type: cell-based; parameters: key: + = Enhanced bioactivity relative to control; − = Bioactivity equal to or less than control; NA = no activity evident; conditions: XX and XXX hinge mutant producers
Method: as §1, §2

L. lactis CBC8 = assay: Deferred antagonism assay; assay type: cell-based; parameters: key: + = Enhanced bioactivity relative to control; − = Bioactivity equal to or less than control; NA = no activity evident; conditions: XX and XXX hinge mutant producers
Method: as §1, §2

S. aureus CBC4 = assay: Deferred antagonism assay; assay type: cell-based; parameters: key: + = Enhanced bioactivity relative to control; − = Bioactivity equal to or less than control; NA = no activity evident; conditions: XX and XXX hinge mutant producers
Method: as §1, §2

L. plantarum CBC6 = assay: Deferred antagonism assay; assay type: cell-based, Lactobacillus plantarum; parameters: key: + = Enhanced bioactivity relative to control; − = Bioactivity equal to or less than control; NA = no activity evident; conditions: XX and XXX hinge mutant producers
Method: as §1, §2

indicator strains = assay: Deferred antagonism assays, various indicator strains (summary); assay type: cell-based; conditions: for Target strain against which the hinge mutant was selected for enhanced bioactivity: XX and XXX banks, L. lactis HP*: enhanced or equal; for Target strain against which the hinge mutant was selected for enhanced bioactivity / Strain(s) against which the derivative (producing strain) displays enhanced bioactivity: relative to nisin A-producing control; for number of targets with enhanced activity: of the 8 additional targets tested; for Strain(s) against which the derivative (producing strain) displays enhanced bioactivity: value = strains listed
Method: as §1

| Substance | bioactivity relative to a nisin A-producing control (L. monocytogenes CBC1) | bioactivity relative to a nisin A-producing control (L. monocytogenes CBC2) | bioactivity relative to a nisin A-producing control (L. monocytogenes CBC3) | bioactivity relative to a nisin A-producing control (L. lactis CBC7) | bioactivity relative to a nisin A-producing control (L. lactis CBC8) | bioactivity relative to a nisin A-producing control (S. aureus CBC4) | bioactivity relative to a nisin A-producing control (L. plantarum CBC6) | Target strain against which the hinge mutant was selected for enhanced bioactivity (indicator strains) | number of targets with enhanced activity (indicator strains) | Strain(s) against which the derivative (producing strain) displays enhanced bioactivity (indicator strains) |
| --- | --- | --- | --- | --- | --- | --- | --- | --- | --- | --- |
| NisinA PMC | − | − | + | + | − | + | − | B. cereus UCC1 | 3 | L. monocytogenes CBC3, S. aureus CBC4 and L. lactis CBC7; also recorded: L. mono CBC3, S. aureus CBC4, L. lactis CBC7 |
| NisinA PML | − | + | + | + | − | + | − | Staph. aureus RF122 | 4 | S. aureus RF122, L. monocytogenes CBC2 , CBC3, and CBC4 and L. lactis CBC7 and S. aureus RF122, L. mono CBC2, CBC3, CBC4, L. lactis and CBC7 |
| NisinA PMM | − | − | − | − | − | − | − | Staph. aureus RF122 |  | B. cereus UCC1; also recorded: B. cereus UCC |
| NisinA PMQ | − | − | + | + | + | + | − | Strep. agalactiae ATCC 13813/B. cereus UCC1 | 4 | S. agalactiae ATCC13813, B. cereus UCC1, L. monocytogenes CBC3, S. aureus CBC4 , and L. lactis CBC7 , CBC8; also recorded: S. agalactiae ATCC13813, B. cereus UCC1, L. mono CBC3, |
| NisinA PMT | − | − | − | − | − | − | − | Staph. aureus RF122 |  | S. aureus RF122 |
| NisinA PNR (ITSISLCTPGCKTGALMGCPNRTATCHCSIHVSK; not fully specified (bridges); also: lantibiotic nisin-A: lanthionine rings and dehydrated residues, places not given here; UniProt P13068 24-57, looked up, variant N20P M21N K22R) [nisin A hinge variant PNR (i.e. N20P, M21N, K22R)] | − | − | − | − | − | − | − | Staph. aureus RF122 |  | S. aureus RF122 |
| NisinA PSL | − | − | − | − | − | − | − | C. sporogenes UCC1/Staph. aureus RF122 |  | C. sporogenes UCC1 and S. aureus RF122 |
| NisinA PTA | − | − | − | − | − | − | − | C. sporogenes UCC1 |  | C. sporogenes UCC1 |
| NisinA PTL (ITSISLCTPGCKTGALMGCPTLTATCHCSIHVSK; thioether (positions not given here); not fully specified (residues 2, 5, 33, bridges); also: lantibiotic nisin A, thioether rings and dehydro residues not given here; UniProt P13068 24-57, looked up, variant N20P M21T K22L) [nisin A hinge variant PTL (i.e. N20P, M21T, K22L)] | − | − | + | + | − | + | − | C. sporogenes UCC1 | 3 | C. sporogenes UCC1, L. monocytogenes CBC3 and CBC 4 , and L. lactis CBC7; also recorded: C. sporogenes UCC1, L mono CBC3, 4, L. lactis CBC7 |
